Experimental data: paper PMC3288074, “Structural and Functional Analysis of Validoxylamine A 7′-phosphate Synthase ValL Involved in Validamycin A Biosynthesis” (PLoS ONE, 2012)

Assays:
ValL = molecular target: T1, ValL (Streptomyces hygroscopicus, UniProt H2K885); test: X-ray crystallography (co-crystal, […] Å); assay type: binding; conditions: product analog; active site between N- and C-terminal domains; 5 mM trehalose incubated, 30% trehalose in cryoprotectant; pH 8.5, MgCl2; SeMet protein
T1 construct: dimer; selenomethionine-labelled for the 3T7D data set
T1 sequence (H2K885 1-497): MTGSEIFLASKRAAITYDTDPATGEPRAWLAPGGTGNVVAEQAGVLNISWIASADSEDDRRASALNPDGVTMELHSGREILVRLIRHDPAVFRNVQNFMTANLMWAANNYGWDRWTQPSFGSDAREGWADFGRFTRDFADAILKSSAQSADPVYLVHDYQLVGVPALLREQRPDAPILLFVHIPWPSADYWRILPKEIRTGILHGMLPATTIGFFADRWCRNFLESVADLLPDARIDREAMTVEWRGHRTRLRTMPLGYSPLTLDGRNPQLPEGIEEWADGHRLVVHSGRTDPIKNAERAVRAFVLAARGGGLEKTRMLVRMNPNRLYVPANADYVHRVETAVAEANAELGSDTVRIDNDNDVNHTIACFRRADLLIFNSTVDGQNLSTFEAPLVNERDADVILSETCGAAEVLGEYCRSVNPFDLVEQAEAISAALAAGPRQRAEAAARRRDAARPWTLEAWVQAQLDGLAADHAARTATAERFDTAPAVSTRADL

[1] = molecular target: the molecule itself; test: dynamic scattering; in solution; data not shown; conditions not given

| Molecule | X-ray crystallography (co-crystal, 1.7 Å) (ValL) | stoichiometry N [1] |
| --- | --- | --- |
| OC[C@H]1O[C@H](O[C@H]2O[C@H](CO)[C@@H](O)[C@H](O)[C@H]2O)[C@H](O)[C@@H](O)[C@@H]1O [trehalose] | The co-crystallization of ValL/trehalose led to the determination of ValL/trehalose complex structure. |  |
| Validoxylamine A 7'-phosphate synthase ValL (enzyme, ValL, validoxylamine A 7'-phosphate synthase of the validamycin A gene cluster of Streptomyces hygroscopicus var. jinggangensis 5008; the encoded protein has 497 aa; gene valL cloned into pET28a between EcoRI and BamHI sites; Removal of the tag is not mentioned; The ValL/trehalose structure (3T7D) was obtained from selenomethionine-labelled ValL; the apo structure (3T5T) from native ValL; also …) TGSEIFLASKRAAITYDTDPATGEPRAWLAPGGTGNVVAEQAGVLNISWIASADSEDDRRASALNPDGVTMELHSGREILVRLIRHDPAVFRNVQNFMTANLMWAANNYGWDRWTQPSFGSDAREGWADFGRFTRDFADAILKSSAQSADPVYLVHDYQLVGVPALLREQRPDAPILLFVHIPWPSADYWRILPKEIRTGILHGMLPATTIGFFADRWCRNFLESVADLLPDARIDREAMTVEWRGHRTRLRTMPLGYSPLTLDGRNPQLPEGIEEWADGHRLVVHSGRTDPIKNAERAVRAFVLAARGGGLEKTRMLVRMNPNRLYVPANADYVHRVETAVAEANAELGSDTVRIDNDNDVNHTIACFRRADLLIFNSTVDGQNLSTFEAPLVNERDADVILSETCGAAEVLGEYCRSVNPFDLVEQAEAISAALAAGPRQRAEAAARRRDAARPWTLEAWVQAQLDGLAADHAARTATAERFDTAPAVSTRADL |  | 2 |
